The text below walks through data of patent US20260116920A1, “HUMAN TRANSFERRIN RECEPTOR BINDING PEPTIDE” (PEPTIDREAM INC., priority 2021, published 2026).

Molecules are shown by their SMILES. Read-outs that look alike come from different tables or passages of the source. Positions of bridges follow the written chain, without caps; N, C: chain ends. Non-standard residues stand in square brackets, D forms with d. Residues, ends and D or L forms follow the SMILES beside them. *: point of attachment. NH(CH2CH2O)8Me = COCCOCCOCCOCCOCCOCCOCCOCCN*; NMePhe(3-Cl) = CN[C@@H](Cc1cccc(Cl)c1)C(=O)O; 3Pal(6-NH2) = Nc1ccc(C[C@H](N)C(=O)O)cn1; NMeY = CN[C@@H](Cc1ccc(O)cc1)C(=O)O; 3Pal = N[C@@H](Cc1cccnc1)C(=O)O; 4Pal = N[C@@H](Cc1ccncc1)C(=O)O; PEG4 = NCCOCCOCCOCCOCCC(=O)O

This assay addresses T1, human transferrin receptor (hTfR) (Homo sapiens, UniProt P02786).
T1 construct: made in house
The experiment in a line: Evaluation of molecular interaction between transferrin receptor (hTfR) and peptide using surface plasmon resonance (SPR). Format: binding. Put shortly:
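Recombinant hTfR dimer (0.5 μM) immobilized on Ni-loaded NTA chip via EDC/NHS, ethanolamine-capped. Peptides at 5–100 nM in HEPES pH 8.0 buffer with 150 mM NaCl, 0.05% Tween 20, 0.1% BSA, 1.0% DMSO, flowed by single-cycle kinetics; KD from least-squares fit of sensorgrams.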

[1] abbreviates: surface plasmon resonance, binding to hTfR, KD class symbol, read-out: SPR (KD value).

T1 sequence (P02786 89-760 limits assumed): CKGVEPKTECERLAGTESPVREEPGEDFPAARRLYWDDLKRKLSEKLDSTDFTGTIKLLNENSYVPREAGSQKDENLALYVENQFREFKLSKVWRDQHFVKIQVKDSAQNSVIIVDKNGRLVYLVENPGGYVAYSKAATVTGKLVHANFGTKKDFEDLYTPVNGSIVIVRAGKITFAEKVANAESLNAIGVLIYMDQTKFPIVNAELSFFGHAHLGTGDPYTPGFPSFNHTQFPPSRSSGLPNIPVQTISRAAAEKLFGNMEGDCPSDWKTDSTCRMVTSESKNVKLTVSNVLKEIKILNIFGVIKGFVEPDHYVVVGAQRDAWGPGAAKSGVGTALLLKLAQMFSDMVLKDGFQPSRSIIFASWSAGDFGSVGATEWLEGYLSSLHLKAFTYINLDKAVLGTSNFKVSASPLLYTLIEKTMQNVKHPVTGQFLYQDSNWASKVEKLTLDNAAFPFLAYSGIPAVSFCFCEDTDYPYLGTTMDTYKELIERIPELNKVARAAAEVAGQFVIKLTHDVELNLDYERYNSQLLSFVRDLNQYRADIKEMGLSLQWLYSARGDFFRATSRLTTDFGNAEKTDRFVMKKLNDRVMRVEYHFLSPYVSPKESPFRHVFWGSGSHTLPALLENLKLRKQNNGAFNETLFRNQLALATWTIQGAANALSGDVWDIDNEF

In the case of `CC[C@H](C)[C@@H]1NC(=O)[C@H](Cc2ccc(OC)cc2)NC(=O)[C@H](Cc2ccc(O)cc2)NC(=O)[C@H](CC(N)=O)NC(=O)[C@H](Cc2c[nH]c3ccccc23)NC(=O)[C@H](C(C)C)NC(=O)[C@H](Cc2cccc(Cl)c2)N(C)C(=O)[C@H](C(C)C)NC(=O)[C@H](C)NC(=O)CSC[C@@H](C(=O)NCC(=O)N[C@@H](CCCCN=[N+]=[N-])C(N)=O)NC(=O)[C@H](Cc2ccc(O)cc2)N(C)C(=O)[C@H](Cc2ccccc2)NC(=O)[C@H](CCCNC(=N)N)NC(=O)[C@H](CCCCN)NC(=O)[C@H]([C@@H](C)CC)NC1=O` [compound 12], the Kd under setting [1] fell in the range of 1 to 100 nM.

`CC[C@H](C)[C@@H]1NC(=O)[C@H](Cc2ccc(OC)cc2)NC(=O)[C@H](Cc2ccc(O)cc2)NC(=O)[C@H](CC(N)=O)NC(=O)[C@H](Cc2c[nH]c3ccccc23)NC(=O)[C@H](C(C)C)NC(=O)[C@H](Cc2cccc(Cl)c2)N(C)C(=O)[C@H](C(C)C)NC(=O)[C@H](C)NC(=O)CSC[C@@H](C(=O)NCCOCCOCCOCCOCCC(N)=O)NC(=O)[C@H](Cc2ccc(O)cc2)N(C)C(=O)[C@H](Cc2ccc(O)cc2)NC(=O)[C@H](CCCNC(=N)N)NC(=O)[C@H](CCCCN)NC(=O)[C@H]([C@@H](C)CC)NC1=O` [894_0292]: the Kd (KD class for binding to hTfR by SPR, peptide with the linker shown in the same line, 'low signal indicates no activity', read-out: SPR) fell in the range of 1 to 100 nM. On to `CC[C@H](C)[C@@H]1NC(=O)[C@H](Cc2ccc(OCC(=O)O)cc2)NC(=O)[C@H](Cc2ccc(O)cc2)NC(=O)[C@H](CC(N)=O)NC(=O)[C@H](Cc2cn(CC(=O)O)c3ccccc23)NC(=O)[C@H](C(C)C)NC(=O)[C@H](Cc2cccc(Cl)c2)N(C)C(=O)[C@H](C(C)C)NC(=O)[C@H](C)NC(=O)CSC[C@@H](C(=O)NCC(=O)N[C@H](CCC(=O)O)C(=O)N[C@H](CCC(=O)O)C(=O)N[C@H](CCC(=O)O)C(=O)N[C@H](CO)C(=O)N[C@H](CO)C(=O)N[C@@H](CCCCN=[N+]=[N-])C(N)=O)NC(=O)[C@H](Cc2ccc(O)cc2)N(C)C(=O)[C@H](Cc2ccccc2)NC(=O)[C@H](CCCNC(=N)N)NC(=O)[C@H](CCCNC(=N)N)NC(=O)[C@H]([C@@H](C)CC)NC1=O` [compound 40], for which the Kd under setting [1] was less than 1 nM. Still for that read-out and setting: to `CC[C@H](C)[C@@H]1NC(=O)[C@H](Cc2ccc(OC)cc2)NC(=O)[C@H](Cc2ccc(O)cc2)NC(=O)[C@H](CC(N)=O)NC(=O)[C@H](Cc2c[nH]c3ccccc23)N(C)C(=O)[C@H](C(C)C)NC(=O)[C@H](Cc2ccc(F)cc2)N(C)C(=O)[C@H](C(C)C)NC(=O)[C@H](C)NC(=O)CSC[C@@H](C(N)=O)NC(=O)[C@H](Cc2ccc(O)cc2)N(C)C(=O)[C@H](Cc2ccccc2)NC(=O)[C@@H](CCCNC(=N)N)NC(=O)[C@H](CCCCNC(=O)CCOCCOCCOCCOC)NC(=O)[C@H]([C@@H](C)CC)NC1=O` [compound 6] belongs 1 to 100 nM. Still for that read-out and setting: to `CC[C@H](C)[C@@H]1NC(=O)[C@H](Cc2cccnc2)NC(=O)[C@H](Cc2ccc(N)nc2)NC(=O)[C@H](CC(N)=O)NC(=O)[C@H](Cc2c[nH]c3ccccc23)NC(=O)[C@H](C(C)C)NC(=O)[C@H](Cc2cccc(Cl)c2)N(C)C(=O)[C@H](C(C)C)NC(=O)[C@H](C)NC(=O)CSC[C@@H](C(=O)NCCOCCOCCOCCOCCC(N)=O)NC(=O)[C@H](Cc2ccc(O)cc2)N(C)C(=O)[C@H](Cc2ccncc2)NC(=O)[C@H](CCC(=O)NCCOCCOCCOCCOCCOCCOCCOCCOC)NC(=O)[C@H](CCCNC(=N)N)NC(=O)[C@H]([C@@H](C)CC)NC1=O` [compound 98] ({CH2CO}-AV[NMePhe(3-Cl)]VWN[3Pal(6-NH2)][3Pal]IIRE(NH(CH2CH2O)8Me)[4Pal][NMeY]C[PEG4]-NH2; thioether N-15) belongs 1 to 100 nM.
